This note sets out measurements from patent US11040976B2, “Substrate selective inhibitors of insulin-degrading enzyme (IDE) and uses thereof” (President and Fellows of Harvard College, priority 2015, dated 2021).

Experiment [1] addresses T1, recombinant human IDE42-1019 (Homo sapiens, UniProt P14735).
T1 construct: recombinant human IDE42-1019 (R&D Systems); purchased R&D Systems
T1 sequence (P14735 42-1019): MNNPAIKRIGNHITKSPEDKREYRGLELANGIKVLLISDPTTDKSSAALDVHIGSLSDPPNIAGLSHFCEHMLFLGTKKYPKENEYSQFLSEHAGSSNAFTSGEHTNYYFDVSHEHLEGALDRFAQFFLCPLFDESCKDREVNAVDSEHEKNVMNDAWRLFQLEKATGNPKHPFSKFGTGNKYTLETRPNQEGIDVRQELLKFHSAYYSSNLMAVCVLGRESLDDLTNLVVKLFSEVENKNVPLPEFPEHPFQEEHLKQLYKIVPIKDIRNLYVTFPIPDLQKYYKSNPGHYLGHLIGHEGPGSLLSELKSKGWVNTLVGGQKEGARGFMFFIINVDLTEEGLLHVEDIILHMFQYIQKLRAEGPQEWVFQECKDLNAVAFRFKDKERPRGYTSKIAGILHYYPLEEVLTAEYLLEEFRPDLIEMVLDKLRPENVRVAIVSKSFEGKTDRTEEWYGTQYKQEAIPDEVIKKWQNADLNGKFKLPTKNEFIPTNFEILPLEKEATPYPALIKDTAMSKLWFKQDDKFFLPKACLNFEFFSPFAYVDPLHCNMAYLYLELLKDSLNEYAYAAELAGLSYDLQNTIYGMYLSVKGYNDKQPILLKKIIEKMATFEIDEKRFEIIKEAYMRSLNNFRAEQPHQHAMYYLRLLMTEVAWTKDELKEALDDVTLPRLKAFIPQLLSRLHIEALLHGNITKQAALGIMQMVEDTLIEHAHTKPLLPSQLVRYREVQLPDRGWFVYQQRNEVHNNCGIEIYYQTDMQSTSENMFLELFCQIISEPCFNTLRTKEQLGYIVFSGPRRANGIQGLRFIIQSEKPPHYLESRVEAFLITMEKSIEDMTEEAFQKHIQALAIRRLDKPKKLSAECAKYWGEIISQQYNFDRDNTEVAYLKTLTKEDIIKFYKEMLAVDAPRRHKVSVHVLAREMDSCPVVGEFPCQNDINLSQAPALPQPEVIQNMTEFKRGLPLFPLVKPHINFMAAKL
Description: Protease assay with fluorogenic peptide substrate Mca-[…](Dnp)-OH. The class given is biochemical. As to conditions: fluorogenic peptide Mca-RPPGFSAFK(Dnp)-OH; for IC50: apparent IC50 for compounds with submaximal inhibition, read-out: IC50 (μM) Proteolysis; for Emax: plateau at high inhibitor concentration, read-out: Imax (%) Proteolysis (inhibition maximum).

The target in experiment [2] is T2, Human N-His6-IDE42-1019 (E. coli expressed) (Homo sapiens, UniProt P14735).
T2 construct: Human N-His6-IDE42-1019 (E. coli expressed); made in house; host or cells: E. coli (Rosetta 2 (DE3) pLysS, plasmid pTrcHis-A)
T2 sequence (P14735 42-1019): T1 sequence (P14735 42-1019)
The experiment in a line: Fluorescence anisotropy high-throughput screening assay (displacement of probe FL-6b). The class given is binding. How it is done: The fluorescence anisotropy screening method and probe FL-6b are described in PCT application PCT/US2014/064322, incorporated herein by reference.
Human N-His6-IDE42-1019 (E. coli expressed) was mixed with fluorescein-labeled macrocycle FL-6b:
[drawing 802] in 50 mM Tris buffer pH 8.0, with 1 M NaCl, at 25° C. Optimum signal was obtained using a mixture of […] probe FL-6b and 0.5 μM IDE. The “diversity-oriented (DOS) synthesis informer set” compound plates were pinned onto 384-well plates containing the enzyme-probe mixture (50 μL/well). The azetidine screen was pre-printed on 384-well plates and the enzyme-probe mixture was added (50 μL/well). The final compound concentration was 20 μM. IDE inhibitor 6bK was used as a positive control at a final concentration of 1 μM. After 30 minutes of equilibration, the increase in fluorescence anisotropy was recorded using an EnVision spectrophotometer (excitation 492 nm, emission 523 nm). The fluorescence anisotropy was independently measured twice for each screened compound. The Z-scores for each pair of measurements are plotted in FIG. 1A (DOS informer set) and FIG. 1B (azetidines), and average Z-scores are listed for exemplary compounds in Table E1.
Z-scores were calculated based on the raw anisotropy measured for each well according to Eq. 1, wherein x is the raw anisotropy value of the well, μ is the mean of the anisotropy of the negative control wells (DMSO) for the plate, and σ is the standard deviation in anisotropy of the negative control wells (DMSO) for the plate.

[3] abbreviates: final compound concentration 20 μM (6bK control 1 μM), values without asterisk.
The mark [4] stands for this setting: values marked *: from the screen using the diversity-oriented synthesis (DOS) informer set of plates, 20 μM.

`Cc1ccccc1-c1ccc([C@@H]2[C@H]3CN(S(=O)(=O)c4cn(C)cn4)CCCCN3[C@H]2CO)cc1` [compound 868]: in experiment [1], the IC50 was 2.5 µM and the Emax was 40%. Besides, in experiment [2] (setting [3]), the “Average Z-score (Fluorescence anisotropy)” value (“Average Z-score” for short) is on record as −18.53.

Regarding `Cc1ccccc1-c1ccc([C@H]2[C@H](CO)N3C(=O)CN(C(=O)c4cccnc4)C[C@@H]23)cc1` [compound 491], in experiment [1], the IC50 was over 10 µM and the Emax came to 70%. Also, the “Average Z-score” value in experiment [2] (setting [3]) was −12.38.

Turning to `Cc1ccccc1-c1ccc([C@H]2[C@@H](CO)N3CCCCN(C(=O)Nc4cccc(F)c4)C[C@@H]23)cc1` [compound 269], in experiment [1], the Emax worked out at 30%. For the same molecule, the “Average Z-score” value in experiment [2] (setting [3]) is recorded as −4.36.

Consider `Cc1cccc(-c2ccc([C@@H]3[C@H](CO)N4CCCCN(S(=O)(=O)c5cn(C)cn5)C[C@@H]34)cc2)c1` [compound 795], for which, in experiment [1], the Emax worked out at 40%. Besides, the “Average Z-score” value in experiment [2] (setting [3]) was −19.52.

Consider `COc1cccc(C#Cc2ccc([C@@H]3[C@H](CO)N4C(=O)CN(C(C)=O)C[C@@H]34)cc2)c1` [compound 608], for which, in experiment [1], the IC50 is under 10 µM and the Emax is about 100%. The “Average Z-score” value in experiment [2] (setting [3]) is −15.34.

Take `CCCCC(=O)N1CC(=O)N2[C@@H](CO)[C@@H](c3ccc(C#Cc4cccc(OC)c4)cc3)[C@@H]2C1` [compound 564]: the IC50 in experiment [1] was over 100 µM. The “Average Z-score” value in experiment [2] (setting [3]) is given as −1.33.

Consider `Cc1cccc(-c2ccc([C@@H]3[C@@H](CO)N4CCCCN(CCC(F)(F)F)C[C@@H]34)cc2)c1` [compound 073], for which the IC50 in experiment [1] is over 50 µM. Further, in experiment [2] (setting [3]), the “Average Z-score” value is −0.68.

Consider `Cc1ccccc1-c1ccc([C@H]2[C@H](CO)N3C(=O)CN(C(=O)Cc4ccccn4)C[C@@H]23)cc1` [compound 321], for which, in experiment [1], the Emax was determined as 50%. Also, in experiment [2] (setting [3]), the “Average Z-score” value is on record as −17.72.

For the molecule `COc1ccccc1-c1ccc([C@H]2[C@@H](CO)N3CCCCN(C(=O)NC4CCCC4)C[C@H]23)cc1` [compound 439], in experiment [1], the IC50 was determined as 2.5 µM and the Emax worked out at 50%. In experiment [2] (setting [3]), the “Average Z-score” value is reported as −19.08.

For the molecule `Cc1ccccc1-c1ccc([C@H]2[C@@H](CO)N3C(=O)CN(C(=O)Cc4ccccn4)C[C@@H]23)cc1` [compound 805], in experiment [1], the IC50 came out at 2.5 µM and the Emax is 70%. The “Average Z-score” value in experiment [2] (setting [3]) is recorded as −17.31.

In the case of `Cc1ccccc1-c1ccc(C2C3CN(C(=O)C4CCCCC4)CC2N3)cc1` (stereo not shown) [C6], in experiment [1], the IC50 amounted to 2 µM and the Emax is 60%. Besides, the “Average Z-score” value in experiment [2] (setting [3]) was −13.8.

Consider `Cc1ccccc1-c1ccc([C@@H]2[C@H]3CN(C(=O)c4ccncc4)CC(=O)N3[C@H]2CO)cc1` [compound 102], for which the Emax in experiment [1] is 80%. Further, the “Average Z-score” value in experiment [2] (setting [4]) is −13.56*.

Take `Cc1ccccc1-c1ccc(C2C3CN(Cc4cocn4)CC2N3)cc1` (stereo not shown) [C9]: in experiment [1], the IC50 stood at 25 µM and the Emax is over 60%. Further, the “Average Z-score” value in experiment [2] (setting [3]) is on record as −3.01.

With `Cc1cccc(-c2ccc([C@@H]3[C@@H](CO)N4CCCCN(CC5CC5)C[C@@H]34)cc2)c1` [compound 837], the IC50 in experiment [1] is over 100 µM. The “Average Z-score” value in experiment [2] (setting [3]) is −2.88.

For the molecule `Cc1ccccc1-c1ccc([C@H]2[C@H](CO)N3C(=O)CN(C(=O)Nc4cccc(F)c4)C[C@@H]23)cc1` [compound 534], in experiment [1], the IC50 is 7 µM and the Emax is 70%. Moreover, in experiment [2] (setting [3]), the “Average Z-score” value is on record as −3.03.

As for `Cc1cccc(-c2ccc([C@@H]3[C@@H](CO)N4CCCCN(C(=O)NC(C)C)C[C@@H]34)cc2)c1` [compound 777], the Emax in experiment [1] came to 30%. Further, the “Average Z-score” value in experiment [2] (setting [3]) is −5.51.

With `Cc1cccc(-c2ccc([C@@H]3[C@@H](CO)N4CCCCN(C(=O)c5cccnc5)C[C@@H]34)cc2)c1` [compound 443], the IC50 in experiment [1] is over 100 µM. The “Average Z-score” value in experiment [2] (setting [3]) is −3.13.

In the case of `Cc1ccccc1-c1ccc(C2C3CN(S(=O)(=O)c4cn(C)cn4)CC2N3)cc1` (stereo not shown) [C2], in experiment [1], the IC50 was determined as 7 µM and the Emax came to 50%. Further, in experiment [2] (setting [3]), the “Average Z-score” value is recorded as −16.62.

With `Cc1cccc(-c2ccc([C@@H]3[C@@H](CO)N4CCCCN(S(=O)(=O)c5cccs5)C[C@@H]34)cc2)c1` [compound 945], the Emax in experiment [1] stood at 30%. In addition, in experiment [2] (setting [3]), the “Average Z-score” value was −3.77.

On to `Cc1ccccc1-c1ccc([C@@H]2[C@H]3CN(C(=O)Cc4ccccn4)CC(=O)N3[C@H]2CO)cc1` [compound 140], for which, in experiment [1], the IC50 stood at 2.5 µM and the Emax was 50%. For the same molecule, the “Average Z-score” value in experiment [2] (setting [3]) is reported as −17.72.

With `Cc1ccccc1-c1ccc([C@@H]2[C@@H](CO)N3C(=O)CN(S(C)(=O)=O)C[C@@H]23)cc1` [compound 585], in experiment [1], the IC50 amounted to 2.5 µM and the Emax stood at 40%. The “Average Z-score” value in experiment [2] (setting [4]) is −12.65*.

With `Cc1cccc(-c2ccc([C@@H]3[C@@H](CO)N4C(=O)CN(C(=O)Cc5ccccn5)C[C@@H]34)cc2)c1` [compound 348], in experiment [1], the IC50 came to 7 µM and the Emax was determined as 40%. In addition, the “Average Z-score” value in experiment [2] (setting [3]) was −11.8.

Take `CCS(=O)(=O)N1CCCCN2[C@@H](CO)[C@@H](c3ccc(C#Cc4ccccc4OC)cc3)[C@@H]2C1` [compound 964]: in experiment [1], the IC50 was found to be 2.5 µM and the Emax came to 90%. The “Average Z-score” value in experiment [2] (setting [3]) is given as −19.69.

Regarding `Cc1cccc(-c2ccc([C@@H]3[C@@H](CO)N4C(=O)CN(C(=O)c5cnccn5)C[C@@H]34)cc2)c1` [compound 653], in experiment [1], the Emax came to 90%. For the same molecule, the “Average Z-score” value in experiment [2] (setting [3]) was −17.51.

`COc1cccc(-c2ccc([C@@H]3[C@@H](CO)N4CCCCN(C(=O)Nc5ccncc5)C[C@@H]34)cc2)c1` [compound 433]: the IC50 in experiment [1] is over 100 µM. Moreover, the “Average Z-score” value in experiment [2] (setting [3]) is on record as −2.37.

`Cc1ccccc1-c1ccc([C@H]2[C@@H](CO)N3C(=O)CN(C(=O)c4cccnc4)C[C@H]23)cc1` [compound 3421]: in experiment [1], the IC50 is 2 µM and the Emax is 60%. Moreover, the “Average Z-score” value in experiment [2] (setting [3]) was −17.16.

For the molecule `O=C(c1ccccn1)N1CC(=O)N2[C@@H](CO)[C@@H](c3ccc(C#Cc4ccccc4)cc3)[C@@H]2C1` [compound 479], in experiment [1], the IC50 was under 10 µM and the Emax was about 100%. The “Average Z-score” value in experiment [2] (setting [3]) was −19.91.

Take `Cc1ccccc1-c1ccc([C@@H]2[C@H]3CN(C(=O)c4cccnc4)CC(=O)N3[C@H]2CO)cc1` [compound 745]: in experiment [1], the IC50 amounted to 2.5 µM and the Emax is 70%. In addition, the “Average Z-score” value in experiment [2] (setting [3]) is recorded as −19.67.

With `Cc1ccccc1-c1ccc([C@H]2[C@@H](CO)N3CCCCN(CC4CC4)C[C@@H]23)cc1` [compound 768], in experiment [1], the IC50 is over 100 µM. In experiment [2] (setting [3]), the “Average Z-score” value is given as −3.48.

In the case of `COC(=O)N1CCCCN2[C@H](CO)[C@@H](c3ccc(-c4cccc(C)c4)cc3)[C@@H]2C1` [compound 559], the IC50 in experiment [1] was over 100 µM. Moreover, the “Average Z-score” value in experiment [2] (setting [3]) is −5.28.
